Key:
[1] = biological target: FLT3(D835Y) (Homo sapiens, UniProt P36888, D835Y); test: KINOMEscan; settings: read-out: Percent Control
Method: (§1) The kinase engagement assay (KINOMEscan®) was performed by DiscoverX assessing binding abilities toward a set of kinases.

[2] = biological target: PIK3CA(C420R) (Homo sapiens, UniProt P42336, C420R); test: KINOMEscan; settings: read-out: Percent Control
Method: as §1

[3] = biological target: ABL2 (Homo sapiens, UniProt P42684); test: KINOMEscan; settings: read-out: Percent Control
Method: as §1

[4] = biological target: DYRK1A (Homo sapiens, UniProt Q13627); test: KINOMEscan; settings: read-out: Percent Control
Method: as §1

[5] = biological target: CAMK2B (Homo sapiens, UniProt Q13554); test: KINOMEscan; settings: read-out: Percent Control
Method: as §1

[6] = biological target: KIT(V559D, V654A) (Homo sapiens, UniProt P10721, V559D/V654A); test: KINOMEscan; settings: read-out: Percent Control
Method: as §1

[7] = biological target: ALK(L1196M) (Homo sapiens, UniProt Q9UM73, L1196M); test: KINOMEscan; settings: read-out: Percent Control
Method: as §1

[8] = biological target: p38-delta (Homo sapiens, UniProt O15264); test: KINOMEscan; settings: read-out: Percent Control
Method: as §1

[9] = biological target: PAK2 (Homo sapiens, UniProt Q13177); test: PAK2 degradation in MCF7 and OVCAR3 cells, immunoblot; type: cell-based; set-up: due to their high expression of both PAK1 and PAK2; endogenous in cells; host or cells: MCF7, OVCAR3
Method: […]. Cells were incubated overnight then treated with various concentrations of Pak degraders alone or together with bortezomib or lenalidomide for 24 hours. Protein lysates were harvested at the times specified.
Cells were washed once in PBS and lysed in RIPA buffer (50 mM Tris-HCl, 150 mM NaCl, 0.25% (w/v) sodium deoxycholate, 1% (w/v) NP-40, pH 7.5) containing protease inhibitor cocktail (Roche) and phosphatase inhibitor cocktail (Roche) for 30 minutes on ice. Cell lysates were obtained by centrifugation at 13,500 rpm for 15 minutes at 4° C. BCA protein assay (Thermo Scientific) was used to determine protein concentration then equal amounts of total proteins were separated by SDS-PAGE (Bio-Rad) and transferred to PVDF membrane (Thermo Scientific) at 100V for 2 hours. Membranes were blocked in 5% (w/v) non-fat dry milk in tris-buffered saline with 0.1% Tween-20 (TBS-T) for 1 hour and incubated with primary antibody at 4° C. for overnight. […]
After verifying that BJG-05-039 retained specificity for PAK1, its degradation activity in cells was characterized. First, the PAK1 degrader was evaluated in the breast cancer cell line MCF7 and the ovarian cancer cell line OVCAR3 due to their high expression of both PAK1 and PAK2 and their known dependence on PAK1 (Prudnikova, et al. (2016) Oncogene 35:2178-2185; Shrestha, et al. (2012) Oncogene 31:3397-3408). […]

[10] = biological target: ABL1(F317I)-nonphosphorylated (Homo sapiens, UniProt P00519, F317I); test: KINOMEscan; settings: read-out: Percent Control
Method: as §1

[11] = biological target: ADCK3 (Homo sapiens, UniProt Q8NI60); test: KINOMEscan; settings: read-out: Percent Control
Method: as §1

[12] = biological target: MEK4 (Homo sapiens, UniProt P45985); test: KINOMEscan; settings: read-out: Percent Control
Method: as §1

[13] = biological target: TAOK1 (Homo sapiens, UniProt Q7L7X3); test: KINOMEscan; settings: read-out: Percent Control
Method: as §1

[14] = biological target: PKN1 (Homo sapiens, UniProt Q16512); test: KINOMEscan; settings: read-out: Percent Control
Method: as §1

[15] = biological target: ABL1(M351T)-phosphorylated (Homo sapiens, UniProt P00519, M351T); test: KINOMEscan; settings: read-out: Percent Control
Method: as §1

[16] = biological target: CIT (Homo sapiens, UniProt O14578); test: KINOMEscan; settings: read-out: Percent Control
Method: as §1

[17] = biological target: ASK2 (Homo sapiens, UniProt O95382); test: KINOMEscan; settings: read-out: Percent Control
Method: as §1

[18] = biological target: HIPK4 (Homo sapiens, UniProt Q8NE63); test: KINOMEscan; settings: read-out: Percent Control
Method: as §1

[19] = biological target: EGFR(G719S) (Homo sapiens, UniProt P00533, G719S); test: KINOMEscan; settings: read-out: Percent Control
Method: as §1

[20] = biological target: TAOK3 (Homo sapiens, UniProt Q9H2K8); test: KINOMEscan; settings: read-out: Percent Control
Method: as §1

[21] = biological target: AXL (Homo sapiens, UniProt P30530); test: KINOMEscan; settings: read-out: Percent Control
Method: as §1

[22] = biological target: MAP4K2 (Homo sapiens, UniProt Q12851); test: KINOMEscan; settings: read-out: Percent Control
Method: as §1

[23] = biological target: NLK (Homo sapiens, UniProt Q9UBE8); test: KINOMEscan; settings: read-out: Percent Control
Method: as §1

[24] = biological target: PIK3CA(M1043I) (Homo sapiens, UniProt P42336, M1043I); test: KINOMEscan; settings: read-out: Percent Control
Method: as §1

[25] = biological target: NEK10 (Homo sapiens, UniProt Q6ZWH5); test: KINOMEscan; settings: read-out: Percent Control
Method: as §1

[26] = biological target: CDK7 (Homo sapiens, UniProt P50613); test: KINOMEscan; settings: read-out: Percent Control
Method: as §1

[27] = biological target: NIK (Homo sapiens, UniProt Q99558); test: KINOMEscan; settings: read-out: Percent Control
Method: as §1

[28] = biological target: INSRR (Homo sapiens, UniProt P14616); test: KINOMEscan; settings: read-out: Percent Control
Method: as §1

Chain of TAOK1 (Q7L7X3 whole entry): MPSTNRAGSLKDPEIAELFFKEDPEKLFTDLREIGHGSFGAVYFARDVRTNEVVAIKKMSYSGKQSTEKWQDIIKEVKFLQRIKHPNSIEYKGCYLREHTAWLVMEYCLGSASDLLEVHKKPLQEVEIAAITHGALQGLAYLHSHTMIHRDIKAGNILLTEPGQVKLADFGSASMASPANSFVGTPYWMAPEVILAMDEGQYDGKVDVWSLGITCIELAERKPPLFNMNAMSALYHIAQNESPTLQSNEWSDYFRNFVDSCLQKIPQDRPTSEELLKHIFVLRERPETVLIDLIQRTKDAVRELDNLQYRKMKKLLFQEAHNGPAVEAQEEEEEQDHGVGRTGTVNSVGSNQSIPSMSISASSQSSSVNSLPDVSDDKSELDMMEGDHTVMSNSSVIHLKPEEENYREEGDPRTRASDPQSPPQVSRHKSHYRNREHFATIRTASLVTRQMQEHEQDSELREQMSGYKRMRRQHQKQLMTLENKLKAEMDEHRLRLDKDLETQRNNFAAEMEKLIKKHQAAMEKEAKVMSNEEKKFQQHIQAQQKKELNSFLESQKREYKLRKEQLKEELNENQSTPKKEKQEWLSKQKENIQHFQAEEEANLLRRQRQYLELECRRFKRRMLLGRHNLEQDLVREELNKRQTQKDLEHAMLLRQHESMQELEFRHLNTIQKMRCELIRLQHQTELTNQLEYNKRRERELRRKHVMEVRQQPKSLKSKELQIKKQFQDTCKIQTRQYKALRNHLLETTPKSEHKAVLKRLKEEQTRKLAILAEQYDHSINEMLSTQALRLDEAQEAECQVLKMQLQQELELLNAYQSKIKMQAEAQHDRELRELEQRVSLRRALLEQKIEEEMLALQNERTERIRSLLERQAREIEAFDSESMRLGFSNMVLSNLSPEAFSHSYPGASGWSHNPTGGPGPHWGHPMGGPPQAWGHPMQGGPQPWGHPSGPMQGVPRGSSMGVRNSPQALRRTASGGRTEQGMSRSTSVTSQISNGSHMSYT
Chain of PKN1 (Q16512 whole entry): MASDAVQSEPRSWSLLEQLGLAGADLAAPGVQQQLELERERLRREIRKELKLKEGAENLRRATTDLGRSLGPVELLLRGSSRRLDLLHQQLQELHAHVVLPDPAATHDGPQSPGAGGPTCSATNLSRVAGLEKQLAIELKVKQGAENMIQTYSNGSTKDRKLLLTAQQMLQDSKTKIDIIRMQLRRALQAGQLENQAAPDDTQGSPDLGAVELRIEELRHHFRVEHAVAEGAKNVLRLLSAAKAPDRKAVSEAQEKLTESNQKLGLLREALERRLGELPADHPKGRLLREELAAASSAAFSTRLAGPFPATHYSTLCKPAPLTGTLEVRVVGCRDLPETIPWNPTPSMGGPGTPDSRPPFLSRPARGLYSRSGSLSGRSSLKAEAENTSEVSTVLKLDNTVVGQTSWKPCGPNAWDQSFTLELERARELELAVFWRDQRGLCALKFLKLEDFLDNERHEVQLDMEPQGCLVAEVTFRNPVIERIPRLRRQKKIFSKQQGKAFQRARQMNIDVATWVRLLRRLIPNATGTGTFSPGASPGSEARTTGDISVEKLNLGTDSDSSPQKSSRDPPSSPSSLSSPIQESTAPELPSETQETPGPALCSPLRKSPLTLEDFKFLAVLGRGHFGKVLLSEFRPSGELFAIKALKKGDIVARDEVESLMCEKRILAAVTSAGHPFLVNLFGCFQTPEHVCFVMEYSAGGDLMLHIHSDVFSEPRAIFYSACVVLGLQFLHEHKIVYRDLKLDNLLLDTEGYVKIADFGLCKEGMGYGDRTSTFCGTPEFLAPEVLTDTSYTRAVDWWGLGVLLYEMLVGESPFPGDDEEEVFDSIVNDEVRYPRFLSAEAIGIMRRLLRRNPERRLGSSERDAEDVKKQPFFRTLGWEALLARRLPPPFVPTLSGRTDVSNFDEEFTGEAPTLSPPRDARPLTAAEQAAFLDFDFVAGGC
Chain of CIT (O14578 whole entry): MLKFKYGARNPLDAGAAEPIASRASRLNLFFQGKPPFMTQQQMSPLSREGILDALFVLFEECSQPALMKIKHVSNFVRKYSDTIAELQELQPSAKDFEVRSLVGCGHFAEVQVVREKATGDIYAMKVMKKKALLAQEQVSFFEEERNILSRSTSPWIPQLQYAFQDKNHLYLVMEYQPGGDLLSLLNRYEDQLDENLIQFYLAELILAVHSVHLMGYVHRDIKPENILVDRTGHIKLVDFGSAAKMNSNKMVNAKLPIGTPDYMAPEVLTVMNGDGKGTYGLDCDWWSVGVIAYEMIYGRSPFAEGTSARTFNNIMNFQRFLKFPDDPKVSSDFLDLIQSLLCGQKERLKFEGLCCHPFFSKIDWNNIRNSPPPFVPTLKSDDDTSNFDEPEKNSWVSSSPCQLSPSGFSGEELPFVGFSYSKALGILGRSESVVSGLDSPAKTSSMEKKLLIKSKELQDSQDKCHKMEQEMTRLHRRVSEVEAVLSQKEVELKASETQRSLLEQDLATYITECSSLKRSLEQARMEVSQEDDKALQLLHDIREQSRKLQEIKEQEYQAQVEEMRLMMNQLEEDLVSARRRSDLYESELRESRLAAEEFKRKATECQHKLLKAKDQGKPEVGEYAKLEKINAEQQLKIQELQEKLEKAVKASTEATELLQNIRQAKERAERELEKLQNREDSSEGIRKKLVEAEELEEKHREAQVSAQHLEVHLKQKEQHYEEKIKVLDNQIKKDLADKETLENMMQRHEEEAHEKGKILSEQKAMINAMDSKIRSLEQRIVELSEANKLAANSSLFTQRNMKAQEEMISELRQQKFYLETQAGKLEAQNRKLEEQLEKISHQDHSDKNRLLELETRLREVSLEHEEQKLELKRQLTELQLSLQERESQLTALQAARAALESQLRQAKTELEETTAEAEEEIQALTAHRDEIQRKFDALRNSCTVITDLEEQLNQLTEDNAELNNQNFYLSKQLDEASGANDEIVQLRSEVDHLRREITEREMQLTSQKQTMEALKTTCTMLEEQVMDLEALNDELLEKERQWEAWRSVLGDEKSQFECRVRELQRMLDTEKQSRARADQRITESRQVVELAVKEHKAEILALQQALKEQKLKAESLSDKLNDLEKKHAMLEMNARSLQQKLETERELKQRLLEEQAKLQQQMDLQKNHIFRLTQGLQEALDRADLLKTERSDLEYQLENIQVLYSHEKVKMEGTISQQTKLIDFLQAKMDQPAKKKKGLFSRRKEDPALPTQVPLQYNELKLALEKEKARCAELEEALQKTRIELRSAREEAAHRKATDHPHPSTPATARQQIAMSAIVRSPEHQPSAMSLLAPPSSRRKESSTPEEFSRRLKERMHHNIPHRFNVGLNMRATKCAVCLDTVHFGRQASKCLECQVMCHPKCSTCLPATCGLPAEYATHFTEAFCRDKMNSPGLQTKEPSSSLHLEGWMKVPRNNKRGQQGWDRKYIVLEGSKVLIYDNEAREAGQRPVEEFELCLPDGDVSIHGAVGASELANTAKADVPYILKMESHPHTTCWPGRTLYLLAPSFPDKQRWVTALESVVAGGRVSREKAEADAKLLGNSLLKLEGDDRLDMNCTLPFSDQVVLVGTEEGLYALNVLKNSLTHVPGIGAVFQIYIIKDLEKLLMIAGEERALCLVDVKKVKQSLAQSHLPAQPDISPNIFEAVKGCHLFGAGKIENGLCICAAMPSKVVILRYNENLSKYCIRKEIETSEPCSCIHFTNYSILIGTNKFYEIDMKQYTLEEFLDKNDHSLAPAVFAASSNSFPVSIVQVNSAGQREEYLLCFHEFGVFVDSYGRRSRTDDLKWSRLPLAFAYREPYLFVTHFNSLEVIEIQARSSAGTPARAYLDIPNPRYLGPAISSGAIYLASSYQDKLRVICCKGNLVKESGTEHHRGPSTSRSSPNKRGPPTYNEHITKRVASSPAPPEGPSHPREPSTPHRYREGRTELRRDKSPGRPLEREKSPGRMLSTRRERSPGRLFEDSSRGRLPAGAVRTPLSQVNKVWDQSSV
Chain of CDK7 (P50613 whole entry): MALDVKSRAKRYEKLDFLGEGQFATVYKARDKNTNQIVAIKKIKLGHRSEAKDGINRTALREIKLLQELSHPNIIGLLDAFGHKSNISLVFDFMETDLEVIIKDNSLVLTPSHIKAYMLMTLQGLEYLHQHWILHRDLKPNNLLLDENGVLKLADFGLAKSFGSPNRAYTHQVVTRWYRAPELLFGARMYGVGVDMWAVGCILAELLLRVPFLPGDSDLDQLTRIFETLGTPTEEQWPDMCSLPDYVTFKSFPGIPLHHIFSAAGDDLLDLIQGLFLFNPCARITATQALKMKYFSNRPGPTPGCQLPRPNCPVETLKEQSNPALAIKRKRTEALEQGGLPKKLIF
Chain of NLK (Q9UBE8 whole entry): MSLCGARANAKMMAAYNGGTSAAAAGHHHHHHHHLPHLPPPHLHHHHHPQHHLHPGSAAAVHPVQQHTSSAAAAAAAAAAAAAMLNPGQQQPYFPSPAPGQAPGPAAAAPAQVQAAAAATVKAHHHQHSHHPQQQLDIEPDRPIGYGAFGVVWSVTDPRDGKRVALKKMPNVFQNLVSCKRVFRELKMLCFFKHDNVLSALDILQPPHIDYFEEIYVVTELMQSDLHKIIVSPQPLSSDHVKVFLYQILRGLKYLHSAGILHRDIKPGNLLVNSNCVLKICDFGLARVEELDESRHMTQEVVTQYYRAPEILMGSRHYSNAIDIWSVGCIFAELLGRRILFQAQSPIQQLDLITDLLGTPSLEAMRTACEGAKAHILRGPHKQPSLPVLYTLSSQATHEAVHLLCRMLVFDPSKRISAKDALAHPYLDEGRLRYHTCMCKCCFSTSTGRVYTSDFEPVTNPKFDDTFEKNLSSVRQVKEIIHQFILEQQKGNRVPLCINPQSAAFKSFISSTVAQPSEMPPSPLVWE

O=C1CCC(N2C(=O)c3cccc(NCCCCCCCCNC(=O)N4CC[C@H](NC5=Nc6cc(F)ccc6N(CC(F)F)c6ccc(Cl)cc65)C4)c3C2=O)C(=O)N1 (stereo partly drawn) [BJG-05-039, (3S)-3-((2-Chloro-5-(2,2-difluoroethyl)-8-fluoro-5H-dibenzo[b,e][1,4]diazepin-11-yl)amino)-N-(8-((2-(2,6-dioxopiperidin-3-yl)-1,3-dioxoisoindolin-4-yl)amino)octyl)pyrrolidine-1-carboxamide]
remaining binding at 10 µM [1]: 63%
remaining binding at 10 µM [2]: 100%
remaining binding at 10 µM [3]: 94%
remaining binding at 10 µM [4]: 100%
remaining binding at 10 µM [5]: 46%
remaining binding at 10 µM [6]: 63%
remaining binding at 10 µM [7]: 100%
remaining binding at 10 µM [8]: 92%
PAK2 degradation [9]: not PAK2
remaining binding at 10 µM [10]: 91%
remaining binding at 10 µM [11]: 83%
remaining binding at 10 µM [12]: 85%
remaining binding at 10 µM [13]: 95%
remaining binding at 10 µM [14]: 95%
remaining binding at 10 µM [15]: 100%
remaining binding at 10 µM [16]: 94%
remaining binding at 10 µM [17]: 78%
remaining binding at 10 µM [18]: 67%
remaining binding at 10 µM [19]: 84%
remaining binding at 10 µM [20]: 85%
remaining binding at 10 µM [21]: 49%
remaining binding at 10 µM [22]: 89%
remaining binding at 10 µM [23]: 53%
remaining binding at 10 µM [24]: 100%
remaining binding at 10 µM [25]: 99%
remaining binding at 10 µM [26]: 100%
remaining binding at 10 µM [27]: 76%
remaining binding at 10 µM [28]: 65%

— patent publication US20250312462A1, “PAK1 DEGRADERS AND METHODS OF USE THEREOF” (INSTITUTE FOR CANCER RESEARCH D/B/A THE RESEARCH INSTITUTE …, priority 2022, published 2025)
